Laboratory results: PMC11997999, “Uncovering α-Selectivity for Liver X Receptor Agonists for Lipotoxic Cancer Therapies” (Journal of Medicinal Chemistry, 2025)

Key:
LXRβ LBD (GST) = molecular target: T1, LXRβ LBD (GST) (Homo sapiens, UniProt P55055); experiment: Time-resolved LXR FRET assay (LanthaScreen TR-FRET LXRβ assay kit); assay type: biochemical; conditions: 10 nM LXRβ LBD (GST), read after 6 h; R^2 of fit given; read-out: TR-FRET activity (EC50) LXRβ
T1 construct: 5 nM LXRα LBD (GST); 10 nM LXRβ LBD (GST); purchased ThermoFisher Scientific PV4658
T1 sequence (P55055 222-460 limits assumed): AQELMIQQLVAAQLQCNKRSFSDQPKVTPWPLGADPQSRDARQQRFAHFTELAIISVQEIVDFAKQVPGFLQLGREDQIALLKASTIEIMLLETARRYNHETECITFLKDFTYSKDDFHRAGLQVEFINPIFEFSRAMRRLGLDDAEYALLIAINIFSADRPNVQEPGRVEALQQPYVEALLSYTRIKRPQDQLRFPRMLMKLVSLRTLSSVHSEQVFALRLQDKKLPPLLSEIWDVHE
Description: The biochemical TR-FRET assays were performed using the LanthaScreen TR-FRET LXRα Coactivator Assay Kit, goat (ThermoFisher Scientific, PV4655), and the LanthaScreen TR-FRET LXRβ assay kit, goat (ThermoFisher Scientific, PV4658), according to the manufacturer’s instructions using the following concentrations: 5 nM LXRα LBD (GST); 10 nM LXRβ LBD (GST); 500 nM fluorescein-TRAP220/DRIP-2; 200 nM fluorescein-D22; 10 nM Tb anti-GST antibody. The TR-FRET signals were measured after 6 h using a TECAN SPARK multimode microplate reader with the following settings: first excitation wavelength: 360 nm (bandwidth 35 nm), first emission wavelength: 485 nm (bandwidth 20 nm); second excitation wavelength: 360 nm (bandwidth 35 nm), second emission wavelength: 535 nm (bandwidth 25 nm); integration time: 200 μs; lag time: 100 μs; settle time: 0 ms.

AML12 cells = experiment: Cell viability analysis in untransformed liver cells AML12 (CellTiter-Glo); assay type: cell-based; conditions: AML12, 5d, with 2 μM sorafenib
Description: To further determine the therapeutic potential of compound 40, we analyzed the effect of a combinatorial lipotoxic therapy with this agonist in untransformed liver cells. We applied the well-established untransformed liver cell lines AML12 and BNL CL.2 and subjected them to treatment with 40 in combination with sorafenib.
For organoid treatment studies, digestion of organoids was performed using TrypLE Express (Gibco) supplemented with 100 μg/mL DNaseI and 10.5 μM Y-27632 dihydrochloride (Invitrogen) at 37 °C, and afterward, single-cells were plated in white 96 well plates (Sarstedt) in a mixture of 10% Matrigel (Growth Factor Reduced (GFR) Matrigel, Corning) in culture medium. Cell viability was determined after 5 days of treatment using the CellTiter-Glo 3D Cell Viability Assay Kit (Promega). Cell viability of Hep3B, AML12, and BNL CL.2 cells was determined after 5 days of treatment in white 96 well plates (Sarstedt) using the CellTiter-Glo 2.0 Cell Viability Assay Kit (Promega). AML12 and BNL CL.2 cells were also obtained from the American Type Culture Collection. The luminescence signal was measured using an […] M PLEX plate reader (Tecan) and the Tecan i-control software (v3.9.1). Sodium oleate (Selleckchem) was dissolved in methanol and added to cells at a final concentration of 200 μM.

- EC50 (LXRβ LBD (GST)): 266 nM
SMILES: O=C1C(Nc2ccc(N3CCCCC3)cc2)=C(c2ccccc2)C(=O)N1Cc1ccccc1 [Compound 40, 1-Benzyl-3-phenyl-4-((4-(piperidin-1-yl)phenyl)amino)-1H-pyrrole-2,5-dione]
- sensitivity of untransformed liver cells to combination therapy (cell viability) (AML12 cells): only very low sensitivity
